Measurements from patent publication US10034861B2 (priority 2016, dated 2018).
Like-named read-outs stand apart in the source and are kept apart here.

Assays:
Type in all cases: biochemical
PDE1A = PDE1A (Homo sapiens (Human), UniProt P54750); assay: biochemical; conditions: 15 nM tritium labelled cAMP, 1 hr at room temperature, SPA beads
Source text: (§1) Table 1 lists the IC50 value for inhibition of PDE1 by the compounds of the invention. […] PDE1 assays are described in the Experimental Section.

PDE1C = PDE1C (Homo sapiens (Human), UniProt Q14123); assay: biochemical
Chain of PDE1C (Q14123 whole entry): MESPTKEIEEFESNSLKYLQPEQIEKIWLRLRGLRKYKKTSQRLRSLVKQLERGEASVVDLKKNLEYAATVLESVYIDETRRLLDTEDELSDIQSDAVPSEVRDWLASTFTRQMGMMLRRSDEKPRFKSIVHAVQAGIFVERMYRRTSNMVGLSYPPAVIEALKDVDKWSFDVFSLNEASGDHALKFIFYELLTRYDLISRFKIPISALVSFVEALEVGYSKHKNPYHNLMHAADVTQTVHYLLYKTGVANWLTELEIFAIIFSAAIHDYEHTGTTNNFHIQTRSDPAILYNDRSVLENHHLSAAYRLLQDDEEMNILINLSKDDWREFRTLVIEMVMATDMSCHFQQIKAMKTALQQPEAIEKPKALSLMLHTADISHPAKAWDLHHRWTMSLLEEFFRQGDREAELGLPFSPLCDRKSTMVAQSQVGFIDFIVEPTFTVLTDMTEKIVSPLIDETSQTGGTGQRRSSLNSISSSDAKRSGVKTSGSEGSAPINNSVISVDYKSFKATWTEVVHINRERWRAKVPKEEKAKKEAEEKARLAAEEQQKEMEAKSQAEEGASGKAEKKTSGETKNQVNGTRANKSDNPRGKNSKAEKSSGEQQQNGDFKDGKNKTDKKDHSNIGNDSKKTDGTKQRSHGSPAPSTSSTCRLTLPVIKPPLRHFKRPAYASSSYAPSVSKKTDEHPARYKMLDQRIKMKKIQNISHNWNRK
Source text: as §1

PDE1B = PDE1B (Homo sapiens (Human), UniProt Q01064); assay: PDE1 inhibition assay (PDE1B); conditions: 15 nM tritium labelled cAMP, 1 hr at room temperature, SPA beads
Chain of PDE1B (Q01064 whole entry): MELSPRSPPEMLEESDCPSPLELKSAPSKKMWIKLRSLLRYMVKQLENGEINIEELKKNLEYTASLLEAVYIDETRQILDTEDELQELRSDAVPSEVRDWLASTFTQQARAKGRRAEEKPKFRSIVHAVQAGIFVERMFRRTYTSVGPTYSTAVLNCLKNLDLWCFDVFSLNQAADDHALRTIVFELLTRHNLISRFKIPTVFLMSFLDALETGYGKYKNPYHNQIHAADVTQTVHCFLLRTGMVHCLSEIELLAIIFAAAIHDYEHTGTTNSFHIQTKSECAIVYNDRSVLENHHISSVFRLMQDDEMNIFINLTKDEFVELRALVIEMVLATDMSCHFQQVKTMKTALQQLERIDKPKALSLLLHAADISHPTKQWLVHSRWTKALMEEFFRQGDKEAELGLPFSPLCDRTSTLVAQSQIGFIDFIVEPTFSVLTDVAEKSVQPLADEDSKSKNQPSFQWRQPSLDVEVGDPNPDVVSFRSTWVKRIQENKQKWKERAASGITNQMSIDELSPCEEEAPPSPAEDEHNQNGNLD
Source text: as §1

[1] = 15 nM tritium labelled cAMP, 1 hr at room temperature, SPA beads

Chain of PDE1A (P54750 whole entry): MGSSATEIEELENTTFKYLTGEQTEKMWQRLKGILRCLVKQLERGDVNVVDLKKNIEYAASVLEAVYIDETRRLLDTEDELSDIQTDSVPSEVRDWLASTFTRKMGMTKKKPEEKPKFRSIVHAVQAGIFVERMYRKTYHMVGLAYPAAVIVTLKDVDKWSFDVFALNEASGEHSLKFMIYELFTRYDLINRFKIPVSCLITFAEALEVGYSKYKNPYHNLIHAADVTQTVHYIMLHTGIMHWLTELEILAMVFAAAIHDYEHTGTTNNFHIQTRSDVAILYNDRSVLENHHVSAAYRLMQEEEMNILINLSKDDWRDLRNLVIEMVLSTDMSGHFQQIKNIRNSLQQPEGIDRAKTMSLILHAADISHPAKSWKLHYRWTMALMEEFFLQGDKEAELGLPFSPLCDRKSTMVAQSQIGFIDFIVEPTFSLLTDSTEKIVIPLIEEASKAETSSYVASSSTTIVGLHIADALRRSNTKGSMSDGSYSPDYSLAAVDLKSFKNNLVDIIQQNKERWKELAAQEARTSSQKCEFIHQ

CCOc1ncccc1-c1cc(NCc2nncn2C)c2c(n1)c(C)nn2C(C)C [Example 162, 5-(2-ethoxy-3-pyridyl)-1-isopropyl-3-methyl-N-[(4-methyl-1,2,4-triazol-3-yl)methyl]pyrazolo[4,3-b]pyridin-7-amine]
IC50 (PDE1A): 100 nM
IC50 (PDE1C; [1]): 180 nM

CCOc1ncccc1-c1cc(NCc2ncn(C)n2)c2c(n1)c(C)nn2C(C)CC (single isomer, unassigned) [Example 121, 5-(2-ethoxy-3-pyridyl)-3-methyl-1-[1-methylpropyl]-N-[(1-methyl-1,2,4-triazol-3-yl)methyl]pyrazolo[4,3-b]pyridin-7-amine]
IC50 (PDE1B; PDE1B, IC50 (nM)): 0.47 nM

CCOc1ncccc1-c1cc(NCc2nccc(C)n2)c2c(n1)c(C)nn2C(C)C [Example 75, 5-(2-ethoxy-3-pyridyl)-1-isopropyl-3-methyl-N-[(4-methylpyrimidin-2-yl)methyl]pyrazolo[4,3-b]pyridin-7-amine]
IC50 (PDE1A): 9.9 nM
IC50 (PDE1C; [1]): 33 nM

Cc1nn(C(C)C)c2c(NCc3cccnc3C(F)(F)F)cc(-c3ccc[nH]c3=O)nc12 [Example 193, 3-[1-isopropyl-3-methyl-7-[[2-(trifluoromethyl)-3-pyridyl]methylamino]pyrazolo[4,3-b]pyridin-5-yl]-1H-pyridin-2-one]
IC50 (PDE1A): 320 nM
IC50 (PDE1C; [1]): 880 nM

CCOc1ncccc1-c1cc(NCc2csc(C)n2)c2c(n1)c(C)nn2C(C)C [Example 11, 5-(2-ethoxy-3-pyridyl)-1-isopropyl-3-methyl-N-[(2-methylthiazol-4-yl)methyl]pyrazolo[4,3-b]pyridin-7-amine]
IC50 (PDE1A): 9.6 nM
IC50 (PDE1C; [1]): 30 nM

CCOc1ncccc1-c1cc(NCc2nnco2)c2c(n1)c(C)nn2C(C)C [Example 59, 5-(2-ethoxy-3-pyridyl)-1-isopropyl-3-methyl-N-(1,3,4-oxadiazol-2-ylmethyl)pyrazolo[4,3-b]pyridin-7-amine]
IC50 (PDE1A): 55 nM
IC50 (PDE1C; [1]): 120 nM

CCOc1ncccc1-c1cc(NCc2nnn(C)n2)c2c(n1)c(C)nn2C(C)C [Example 8, 5-(2-ethoxy-3-pyridyl)-1-isopropyl-3-methyl-N-[(2-methyltetrazol-5-yl)methyl]pyrazolo[4,3-b]pyridin-7-amine]
IC50 (PDE1A): 2.9 nM
IC50 (PDE1C; [1]): 8.9 nM

CCOc1ncccc1-c1cc(NCc2cc(CF)on2)c2c(n1)c(C)nn2C(C)C [Example 166, 5-(2-ethoxy-3-pyridyl)-N-[[5-(fluoromethyl)isoxazol-3-yl]methyl]-1-isopropyl-3-methyl-pyrazolo[4,3-b]pyridin-7-amine]
IC50 (PDE1B; read-out: PDE1B, IC50): 0.16 nM

CCOc1ncccc1-c1cc(NCc2cc(C)[nH]n2)c2c(n1)c(C)nn2C(C)CC (single isomer, unassigned) [Example 131, 5-(2-ethoxy-3-pyridyl)-3-methyl-1-[1-methylpropyl]-N-[(5-methyl-1H-pyrazol-3-yl)methyl]pyrazolo[4,3-b]pyridin-7-amine]
IC50 (PDE1B; PDE1B, IC50 (nM)): 0.042 nM

CCOc1ncccc1-c1cc(NCc2cncc(OC)c2)c2c(n1)c(C)nn2C(C)CC (single isomer, unassigned; enantiomer 2) [Example 125, 5-(2-ethoxy-3-pyridyl)-N-[(5-methoxy-3-pyridyl)methyl]-3-methyl-1-[1-methylpropyl]pyrazolo[4,3-b]pyridin-7-amine, enantiomer 2]
IC50 (PDE1B; PDE1B, IC50 (nM)): 0.32 nM

CCOc1ncccc1-c1cc(NCc2cc[nH]n2)c2c(cnn2C(C)CC)n1 (single isomer, unassigned) [Example 137, 5-(2-ethoxy-3-pyridyl)-1-[1-methylpropyl]-N-(1H-pyrazol-3-ylmethyl)pyrazolo[4,3-b]pyridin-7-amine]
IC50 (PDE1A): 180 nM
IC50 (PDE1C): 340 nM

CCOc1ncccc1-c1cc(NCc2cc[nH]n2)c2c(n1)c(C)nn2C(C)CC (single isomer, unassigned) [Example 120, 5-(2-ethoxy-3-pyridyl)-3-methyl-1-[1-methylpropyl]-N-(1H-pyrazol-3-ylmethyl)pyrazolo[4,3-b]pyridin-7-amine]
IC50 (PDE1C): 7.6 nM

CCOc1ncccc1-c1cc(NCc2ccncn2)c2c(n1)c(C)nn2C(C)C [Example 73, 5-(2-ethoxy-3-pyridyl)-1-isopropyl-3-methyl-N-(pyrimidin-4-ylmethyl)pyrazolo[4,3-b]pyridin-7-amine]
IC50 (PDE1A): 81 nM
IC50 (PDE1C; [1]): 140 nM

CCOc1ncccc1-c1cc(NCc2noc(C)n2)c2c(n1)c(C)nn2C(C)CC (single isomer, unassigned) [Example 128, 5-(2-ethoxy-3-pyridyl)-3-methyl-N-[(5-methyl-1,2,4-oxadiazol-3-yl)methyl]-1-[1-methylpropyl]pyrazolo[4,3-b]pyridin-7-amine]
IC50 (PDE1B; PDE1B, IC50 (nM)): 0.26 nM

Cc1coc(-c2cc(NCc3cnn(C)c3)c3c(n2)c(C)nn3C(C)C)n1 [Example 202, 1-isopropyl-3-methyl-N-((1-methyl-1H-pyrazol-4-yl)methyl)-5-(4-methyloxazol-2-yl)-1H-pyrazolo[4,3-b]pyridin-7-amine]
IC50 (PDE1A): 92 nM
IC50 (PDE1C; [1]): 170 nM

CCOc1ncccc1-c1cc(NCc2cn(C)cn2)c2c(n1)c(C)nn2C(C)CC (single isomer, unassigned) [Example 132, 5-(2-ethoxy-3-pyridyl)-3-methyl-N-[(1-methylimidazol-4-yl)methyl]-1-[1-methylpropyl]pyrazolo[4,3-b]pyridin-7-amine]
IC50 (PDE1B; PDE1B, IC50 (nM)): 0.045 nM

Cc1nn(C(C)C)c2c(NCc3cnn(C)c3)cc(-c3cccnc3N(C)C)nc12 [Example 201, 5-[2-(dimethylamino)-3-pyridyl]-1-isopropyl-3-methyl-N-[(1-methylpyrazol-4-yl)methyl]pyrazolo[4,3-b]pyridin-7-amine]
IC50 (PDE1B; read-out: PDE1B, IC50): 230 nM

CCOc1ncccc1-c1cc(NCc2cc(C)no2)c2c(n1)c(C)nn2C(C)C [Example 10, 5-(2-ethoxy-3-pyridyl)-1-isopropyl-3-methyl-N-[(3-methylisoxazol-5-yl)methyl]pyrazolo[4,3-b]pyridin-7-amine]
IC50 (PDE1A): 4.1 nM
IC50 (PDE1C; [1]): 14 nM

CCOc1ncccc1-c1cc(NCc2cc(C)n(C)n2)c2c(cnn2C(C)C)n1 [Example 44, N-[(1,5-dimethylpyrazol-3-yl)methyl]-5-(2-ethoxy-3-pyridyl)-1-isopropyl-pyrazolo[4,3-b]pyridin-7-amine]
IC50 (PDE1A): 19 nM
IC50 (PDE1C; [1]): 70 nM

CCCOc1ncccc1-c1cc(NCc2cc[nH]n2)c2c(n1)c(C)nn2C(C)CC (single isomer, unassigned) [Example 135, 3-methyl-1-[1-methylpropyl]-5-(2-propoxy-3-pyridyl)-N-(1H-pyrazol-3-ylmethyl)pyrazolo[4,3-b]pyridin-7-amine]
IC50 (PDE1A): 1.9 nM
IC50 (PDE1C; [1]): 3.6 nM

CCCOc1ncccc1-c1cc(NCc2cn[nH]c2)c2c(n1)c(C)nn2C(C)C [Example 196, 1-isopropyl-3-methyl-5-(2-propoxy-3-pyridyl)-N-(1H-pyrazol-4-ylmethyl)pyrazolo[4,3-b]pyridin-7-amine]
IC50 (PDE1A): 18 nM
IC50 (PDE1C; [1]): 27 nM

CCOc1ncccc1-c1cc(NCc2ncccn2)c2c(n1)c(C)nn2C(C)C [Example 74, 5-(2-ethoxy-3-pyridyl)-1-isopropyl-3-methyl-N-(pyrimidin-2-ylmethyl)pyrazolo[4,3-b]pyridin-7-amine]
IC50 (PDE1A): 2.1 nM
IC50 (PDE1C; [1]): 8.1 nM

CCOc1ncccc1-c1cc(NCc2cc(C)no2)c2c(cnn2C(C)C)n1 [Example 42, 5-(2-ethoxy-3-pyridyl)-1-isopropyl-N-[(3-methylisoxazol-5-yl)methyl]pyrazolo[4,3-b]pyridin-7-amine]
IC50 (PDE1A): 82 nM
IC50 (PDE1C; [1]): 180 nM

COc1ncccc1CNc1cc(-c2cccnc2OC)nc2c(C)nn(C(C)C)c12 [Example 95, 1-isopropyl-5-(2-methoxy-3-pyridyl)-N-[(2-methoxy-3-pyridyl)methyl]-3-methyl-pyrazolo[4,3-b]pyridin-7-amine]
IC50 (PDE1A): 42 nM

CCOc1ncccc1-c1cc(NCc2nnc(C)o2)c2c(cnn2C(C)CC)n1 (single isomer, unassigned) [Example 139, 5-(2-ethoxy-3-pyridyl)-N-[(5-methyl-1,3,4-oxadiazol-2-yl)methyl]-1-[1-methylpropyl]pyrazolo[4,3-b]pyridin-7-amine]
IC50 (PDE1A): 330 nM
IC50 (PDE1C): 530 nM

CCOc1ncccc1-c1cc(NCc2noc(C)n2)c2c(cnn2C(C)C)n1 [Example 43, 5-(2-ethoxy-3-pyridyl)-1-isopropyl-N-[(5-methyl-1,2,4-oxadiazol-3-yl)methyl]pyrazolo[4,3-b]pyridin-7-amine]
IC50 (PDE1A): 30 nM
IC50 (PDE1C; [1]): 80 nM

CCOc1ncccc1-c1cc(NCc2cnc(C)o2)c2c(n1)c(C)nn2C(C)C [Example 4, 5-(2-ethoxy-3-pyridyl)-1-isopropyl-3-methyl-N-[(2-methyloxazol-5-yl)methyl]pyrazolo[4,3-b]pyridin-7-amine]
IC50 (PDE1A): 8.6 nM
IC50 (PDE1C; [1]): 19 nM

CCCn1cc(CNc2cc(-c3cccnc3OCC)nc3c(C)nn(C(C)C)c23)cn1 [Example 110, 5-(2-ethoxy-3-pyridyl)-1-isopropyl-3-methyl-N-[(1-propylpyrazol-4-yl)methyl]pyrazolo[4,3-b]pyridin-7-amine]
IC50 (PDE1A): 11 nM
IC50 (PDE1C; [1]): 8.5 nM

CCOc1ncccc1-c1cc(NCc2cnn(C)c2)c2c(n1)c(C)nn2C(C)C [Example 9, 5-(2-ethoxypyridin-3-yl)-1-isopropyl-3-methyl-N-((1-methyl-1H-pyrazol-4-yl)methyl)-1H-pyrazolo[4,3-b]pyridin-7-amine]
IC50 (PDE1A): 2.6 nM
IC50 (PDE1C; [1]): 17 nM

CCOc1ncccc1-c1cc(OCc2cnc(C)o2)c2c(n1)c(C)nn2C(C)C [Example 72, 5-[[5-(2-ethoxy-3-pyridyl)-1-isopropyl-3-methyl-pyrazolo[4,3-b]pyridin-7-yl]oxymethyl]-2-methyl-oxazole]
IC50 (PDE1A): 14 nM
IC50 (PDE1C; [1]): 39 nM

CCC1COC(=O)N1c1cc(NCc2cnn(C)c2)c2c(n1)c(C)nn2C(C)C (stereo not shown) [Example 156, 4-ethyl-3-[1-isopropyl-3-methyl-7-[(1-methylpyrazol-4-yl)methylamino]pyrazolo[4,3-b]pyridin-5-yl]oxazolidin-2-one]
IC50 (PDE1C; [1]): 5.1 nM
